Source: patent publication US20230322789A1, “PYRAZOLOPYRIDAZINONE COMPOUND, AND PHARMACEUTICAL COMPOSITION AND USE THEREOF” (BroadenBio Co., Ltd., priority 2020, published 2023)
Counter-ions that a name gives are not always drawn.

Biological target: HPK1 (Homo sapiens (Human), UniProt Q92918)
Assay: HPK1 kinase activity inhibition test (ADP-Glo, luminescence)
Assay type: biochemical
Conditions: HPK1 5 nM, ATP 2 μM, read-out: IC50, inhibitory effects of compounds on HPK1 kinase activity
Description: 1. HPK1 Kinase Activity Inhibition Test
The kinase activity of HPK1 is manifested as activity of autophosphorylation and phosphorylation of downstream substrates. In the process of autophosphorylation, additional substrates are not required, and ATP is consumed to generate ADP. The amount of the product was measured by ADP-Glo reagent and luminescence method to reflect kinase activity.
Test compounds: compounds prepared in the examples of this application.
Prepare compound stock solution: dissolve the compound to be tested in 100% DMSO to make a 10 mM stock solution;
Prepare 4× Kinase Reaction Buffer:
Prepare 2×HPK1 Kinase Solution:
Dilute the stock solution of the compound to be tested by 5 times with […], make a 4-fold equal dilution in a 96-well dilution plate, add 1 μL of the compound to 49 µL of kinase reaction buffer, and shake on a microplate shaker for 20 minutes. Transfer 2 μL of […] kinase solution to 384 reaction plate, add 1 μL of the test compound to the 384 reaction plate (Greiner, 784075), centrifuge for 1 minute (1000 rpm/min), incubate at 25° C. for 10 minutes. Transfer […] of the 4×ATP mixture to a 384 reaction plate, centrifuge for 1 minute (1000 rpm/mm), and incubate at 25° C. for 60 minutes. In the reaction system, the final concentration of DMSO was […]. Transfer 4 μL of ADP-Glo to a 384 reaction plate, centrifuge for 1 minute (1000 rpm/min), and incubate at 25° C. for 40 minutes. Transfer 8 μL detection solution to a 384 reaction plate, centrifuge for 1 minute (1000 rpm/min), and incubate at 25° C. for 40 minutes. The […] signal was read using a Biotek multi-function plate reader, and the […] (half inhibitory concentration) of the compound was obtained using a four-coefficient nonlinear fitting formula.

Chain of HPK1 (Q92918 whole entry): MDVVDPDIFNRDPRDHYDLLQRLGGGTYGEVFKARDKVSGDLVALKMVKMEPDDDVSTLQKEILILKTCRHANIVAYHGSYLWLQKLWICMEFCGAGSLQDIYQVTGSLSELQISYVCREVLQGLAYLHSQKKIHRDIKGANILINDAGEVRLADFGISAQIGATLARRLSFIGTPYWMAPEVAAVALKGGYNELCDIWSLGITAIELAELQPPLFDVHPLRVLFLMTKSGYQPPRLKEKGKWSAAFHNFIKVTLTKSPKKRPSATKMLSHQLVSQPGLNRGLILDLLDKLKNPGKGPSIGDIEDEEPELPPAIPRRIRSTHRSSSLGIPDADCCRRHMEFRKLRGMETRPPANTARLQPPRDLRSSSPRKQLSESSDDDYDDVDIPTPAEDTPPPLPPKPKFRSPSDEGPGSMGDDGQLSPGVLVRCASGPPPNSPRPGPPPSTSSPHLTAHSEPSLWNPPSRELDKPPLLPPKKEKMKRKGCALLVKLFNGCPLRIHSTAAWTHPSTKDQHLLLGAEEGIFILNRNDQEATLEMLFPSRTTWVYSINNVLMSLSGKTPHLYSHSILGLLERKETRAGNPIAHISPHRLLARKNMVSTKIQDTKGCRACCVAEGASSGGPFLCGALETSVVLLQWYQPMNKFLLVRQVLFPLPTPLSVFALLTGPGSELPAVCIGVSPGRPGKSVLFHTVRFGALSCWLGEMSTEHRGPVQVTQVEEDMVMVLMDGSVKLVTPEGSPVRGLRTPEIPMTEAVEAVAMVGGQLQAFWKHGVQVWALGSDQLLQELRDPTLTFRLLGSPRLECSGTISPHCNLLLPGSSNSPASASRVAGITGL

| SMILES | IC50 [nM] |
| --- | --- |
| Cc1cccc(F)c1-n1nc2c(-c3ccc4c(c3)CCN(C3CCN(C)CC3)C4)n[nH]c2cc1=O [Compound 196, 5-(2-fluoro-6-methylphenyl)-3-(2-(1-methylpiperidin-4-yl)-1,2,3,4-tetrahydroisoquinolin-6-yl)-1H-pyrazolo[4,3-c]pyridazin-6(5H)-one hydrochloride] | 50 to 500 |
| CCc1cccc(F)c1-n1nc2c(-c3cnc(N4CCN(C)CC4)nc3)n[nH]c2cc1=O [Compound 110, 5-(2-ethyl-6-fluorophenyl)-3-(2-(4-methylpiperazin-1-yl)pyrimidin-5-yl)-1H-pyrazolo[4,3-c]pyridazin-6(5H)-one] | 50 to 500 |
| Cc1ccncc1-n1nc2c(-c3ccc(C4=CCN(C)CC4)cc3)n[nH]c2cc1=O [Compound 150, 3-(4-(1-methyl-1,2,3,6-tetrahydropyridin-4-yl)phenyl)-5-(4-methylpyrid-3-yl)-1H-pyrazolo[4,3-c]pyridazin-6(5H)-one] | 500 to 2000 |
| COc1ccc(-n2nc3c(-c4ccc(C5=CCN(C)CC5)cc4)n[nH]c3cc2=O)c(OC)c1 [Compound 4, 5-(2,4-dimethoxyphenyl)-3-(4-(1-methyl-1,2,3,6-tetrahydropyridin-4-yl)phenyl)-1H-pyrazolo[4,3-c]pyridazin-6(5H)-one] | ≤ 50 |
| Cc1cccc(F)c1-n1nc2c(-c3ccc4c(c3)CN(C)[C@H](CO)C4)n[nH]c2cc1=O [Compound 176, (S)-5-(2-fluoro-6-methylphenyl)-3-(3-(hydroxymethyl)-2-methyl-1,2,3,4-tetrahydroisoquinolin-7-yl)-1H-pyrazolo[4,3-c]pyridazin-6(5H)-one] | ≤ 50 |
| Cc1cccc(F)c1-n1nc2c(-c3ccc4c(c3)C(CO)N(C)CC4)n[nH]c2cc1=O (centres unmarked) [Compound 184, 5-(2-fluoro-6-methylphenyl)-3-(1-(hydroxymethyl)-2-methyl-1,2,3,4-tetrahydroisoquinolin-7-yl)-1H-pyrazolo[4,3-c]pyridazin-6(5H)-one] | 50 to 500 |
| Cc1cccc(F)c1-n1nc2c(-c3ccc(N4CCN(C)CC4)c(CN(C)C)c3)n[nH]c2cc1=O [Compound 95, 3-(3-((dimethylamino)methyl)-4-(4-methylpiperazin-1-yl)phenyl)-5-(2-fluoro-6-methylphenyl)-1H-pyrazolo[4,3-c]pyridazin-6(5H)-one] | 50 to 500 |
| Cc1cccc(F)c1-n1nc2c(-c3cc4c(cc3F)CCN(C)C4)n[nH]c2cc1=O [Compound 189, 3-(6-fluoro-2-methyl-1,2,3,4-tetrahydroisoquinolin-7-yl)-5-(2-fluoro-6-methylphenyl)-1H-pyrazolo[4,3-c]pyridazin-6(5H)-one] | 50 to 500 |
| COc1cc(C#N)cc(F)c1-n1nc2c(-c3cccc(N4CC5CCC(C4)N5C)c3)n[nH]c2cc1=O [Compound 203, 3-fluoro-5-methoxy-4-(3-(3-(8-methyl-3,8-diazabicyclo[3.2.1]octan-3-yl)phenyl)-6-oxo-1H-pyrazolo[4,3-c]pyridazin-5(6H)-yl)benzonitrile] | ≤ 50 |
| COc1ccncc1-n1nc2c(-c3ccc(-c4cnn(C)c4)cc3)n[nH]c2cc1=O [Compound 152, 5-(4-methoxypyrid-3-yl)-3-(4-(1-methyl-1H-pyrazol-4-yl)phenyl)-1H-pyrazolo[4,3-c]pyridazin-6(5H)-one] | 50 to 500 |
| Cc1cc(C#N)cc(F)c1-n1nc2c(-c3ccc4c(c3)CN(C(=O)CO)CC4)n[nH]c2cc1=O [Compound 172, 3-fluoro-4-(3-(2-(2-hydroxylacetyl)-1,2,3,4-tetrahydroisoquinolin-7-yl)-6-oxo-1H-pyrazolo[4,3-c]pyridazin-5(6H)-yl)-5-methylbenzonitrile] | 50 to 500 |
| Cc1cccc(F)c1-n1nc2c(-c3ccc(N4CC5CC(C4)N5C)cc3)n[nH]c2cc1=O [Compound 91, 5-(2-fluoro-6-methylphenyl)-3-(4-(6-methyl-3,6-diazabicyclo[3.1.1]heptan-3-yl)phenyl)-1H-pyrazolo[4,3-c]pyridazin-6(5H)-one] | ≤ 50 |
| Cc1cccc(F)c1-n1nc2c(-c3ccc4c(c3)CN(C)C(=O)C4)n[nH]c2cc1=O [Compound 182, 7-(5-(2-fluoro-6-methylphenyl)-6-oxo-5,6-dihydro-1H-pyrazolo[4,3-c]pyridazin-3-yl)-2-methyl-1,2-dihydroisoquinolin-3(4H)-one] | 50 to 500 |
| Cc1cccc(F)c1-n1nc2c(-c3ccc4c(c3)C3COC(=O)N3CC4)n[nH]c2cc1=O (centres unmarked) [Compound 185, 9-(5-(2-fluoro-6-methylphenyl)-6-oxo-5,6-dihydro-1H-pyrazolo[4,3-c]pyridazin-3-yl)-5,6-dihydro-1H-oxazolo[4,3-a]isoquinolin-3(10bH)-one] | 500 to 2000 |

Now from value to molecule:

| IC50 [nM] | SMILES |
| --- | --- |
| 50 to 500 | Cc1cccc(F)c1-n1nc2c(-c3cnc(N4CCOCC4)nc3)n[nH]c2cc1=O [Compound 32, 5-(2-fluoro-6-methylphenyl)-3-(2-morpholinylpyrimidin-5-yl)-1H-pyrazolo[4,3-c]pyridazin-6(5H)-one] |
| ≤ 50 | COc1cccc(F)c1-n1nc2c(-c3ccc(N4CCOCC4)cc3)n[nH]c2cc1=O [Compound 92, 5-(2-fluoro-6-methoxyphenyl)-3-(4-morpholinophenyl)-1H-pyrazolo[4,3-c]pyridazin-6(5H)-one] |
| ≤ 50 | COc1cccc(F)c1-n1nc2c(-c3ccc(N4CCN5C(=O)OCC5C4)cc3)n[nH]c2cc1=O (centres unmarked) [Compound 123, 7-(4-(5-(2-fluoro-6-methoxyphenyl)-6-oxo-5,6-dihydro-1H-pyrazolo[4,3-c]pyridazin-3-yl)phenyl)tetrahydro-1H-oxazolo[3,4-a]pyrazin-3(5H)-one] |
| ≤ 50 | COc1cccc(F)c1-n1nc2c(-c3cccc(N4CCC(N)CC4)c3)n[nH]c2cc1=O [Compound 205, 3-(3-(4-aminopiperidin-1-yl)phenyl)-5-(2-fluoro-6-methoxyphenyl)-1H-pyrazolo[4,3-c]pyridazin-6(5H)-one] |
| 50 to 500 | COc1cccc(C)c1-n1nc2c(-c3ccc(N4CCN(C)CC4)nc3)n[nH]c2cc1=O [Compound 97, 5-(2-methoxy-6-methylphenyl)-3-(6-(4-methylpiperazin-1-yl)pyrid-3-yl)-1H-pyrazolo[4,3-c]pyridazin-6(5H)-one] |
| 50 to 500 | COc1ccncc1-n1nc2c(-c3ccc(N4CCN(C)CC4)cc3)n[nH]c2cc1=O [Compound 48, 5-(4-methoxypyrid-3-yl)-3-(4-(4-methylpiperazin-1-yl)phenyl)-1H-pyrazolo[4,3-c]pyridazin-6(5H)-one] |
| 50 to 500 | Cc1cccc(F)c1-n1nc2c(-c3ccc4c(c3)CN(C(=O)CN3CCOCC3)CC4)n[nH]c2cc1=O [Compound 169, 5-(2-fluoro-6-methylphenyl)-3-(2-(2-morpholinoacetyl)-1,2,3,4-tetrahydroisoquinolin-7-yl)-1H-pyrazolo[4,3-c]pyridazin-6(5H)-one] |
| 500 to 2000 | Cc1ccncc1-n1nc2c(-c3ccc(N4CCN(C)CC4)cc3)n[nH]c2cc1=O [Compound 47, 3-(4-(4-methylpiperazin-1-yl)phenyl)-5-(4-methylpyrid-3-yl)-1H-pyrazolo[4,3-c]pyridazin-6(5H)-one] |
| 50 to 500 | Cc1cccc(F)c1-n1nc2c(-c3ccc(N4CCS(=O)(=O)CC4)nc3)n[nH]c2cc1=O [Compound 104, 3-(6-(1,1-dioxidothiomorpholino)pyrid-3-yl)-5-(2-fluoro-6-methylphenyl)-1H-pyrazolo[4,3-c]pyridazin-6(5H)-one] |
| 50 to 500 | CNCc1cc(-c2n[nH]c3cc(=O)n(-c4c(C)cccc4F)nc23)ccc1N1CCN(C)CC1 [Compound 96, 3-(3-((methylamino)methyl)-4-(4-methylpiperazin-1-yl)phenyl)-5-(2-fluoro-6-methylphenyl)-1H-pyrazolo[4,3-c]pyridazin-6(5H)-one] |
| 50 to 500 | COc1cccc(F)c1-n1nc2c(-c3ccc4c(c3)CN(CC(F)F)CC4)n[nH]c2cc1=O [Compound 166, 3-(2-(2,2-difluoroethyl)-1,2,3,4-tetrahydroisoquinolin-7-yl)-5-(2-fluoro-6-methoxyphenyl)-1H-pyrazolo[4,3-c]pyridazin-6(5H)-one] |
| 50 to 500 | COc1cnccc1-n1nc2c(-c3ccc(N4CCN(C)CC4)cc3)n[nH]c2cc1=O [Compound 153, 5-(3-methoxypyrid-4-yl)-3-(4-(4-methylpiperazin-1-yl)phenyl)-1H-pyrazolo[4,3-c]pyridazin-6(5H)-one] |
| 50 to 500 | Cc1cccc(F)c1-n1nc2c(-c3ccc(N4CCN(C)CC4)cc3)n[nH]c2c(C)c1=O [Compound 55, 5-(2-fluoro-6-methylphenyl)-7-methyl-3-(4-(4-methylpiperazin-1-yl)phenyl)-1H-pyrazolo[4,3-c]pyridazin-6(5H)-one] |
| 500 to 2000 | Cc1cccc(F)c1-n1nc2c(-c3cccc(N4CCN(C)CC4)c3F)n[nH]c2cc1=O [Compound 207, 3-(2-fluoro-3-(4-methylpiperazin-1-yl)phenyl)-5-(2-fluoro-6-methylphenyl)-1H-pyrazolo[4,3-c]pyridazin-6(5H)-one] |
| 50 to 500 | Cc1cccc(F)c1-n1nc2c(-c3ccc(N4CCN(CC(F)F)CC4)cc3)n[nH]c2cc1=O [Compound 84] |
